Data set [1] has as its system KLPN multi-drug resistant strains. Description: MIC against multi-drug resistant strains (Table 5). The class given is cell-based, Klebsiella pneumonia. Particulars: alone. Here is the method:
MIC experiments of the antimicrobial agents were determined by a modified broth microdilution method in accordance with the Clinical and Laboratory Standards Institute (CLSI) guidelines using 96 well culture plates. In brief, serial dilutions of all plates were prepared at different concentrations (μg). The inoculum suspension was prepared by adding isolated colonies from a 18-20 hours on TSA plate into phosphate buffer (0.31 mM, pH 7.2) or in water for injection (BBraun) and adjusting the suspension to a turbidity equivalent to 0.5 McFarland Standard. Each well contained a final bacterial concentration of approximately 5×10^5 colony forming units (CFU)/mL. The plate was covered and incubated at 35° C. for 24 hours. […] For the microdilution plates, turbidity in wells can be measured at OD600 using TECAN infinite M200Pro. MIC was determined as […] concentration that gives a 99 percent inhibition.

In data set [2] the test system is colistin resistant mcr-1 (+) strains 6083655967, 6075066346 and mcr-1 (−) strain 7023446108. Description: Time kill study. The class given is cell-based, E. coli. Particulars: in 2 hours. How it is done: Time kill assay is used to determine the rate at which concentrations an antimicrobial agent kill a bacterial isolate. The bacterial suspension was adjusted to 10^6 to 10^7 CFU/mL with different concentrations of LC compounds and the antibiotics for comparison in separate tubes that incubated at 35° C. For synergy time kill: Two different antimicrobial agents which are antibiotic/LC compounds were added in an equal amount make a final volume to 1 mL (e.g: 500 μL of Antibiotic: 500 μL of LC compound) and subsequently 1 mL of prepared bacteria suspension were added into the same tube. Aliquots of 100 μL samples will be withdrawn at different time intervals (0, 1, 2, 4, 8, 24 hours) and were plated on Mueller Hinton Agar (MHA) upon set of serial dilutions. Subsequently, after 24 and 48 hours, all the plates were checked for bacteria growth and the colonies were calculated for colony-forming unit (CFU/mL) numeration and the time kill curve plotted with logarithm of the viable count against time. The results from various concentrations of antibiotics and control were plotted.
To understand the action of the combinations of LC100 with colistin, time kill experiments using the inventive combination in three colistin resistant strains, including two mcr-1(+) and one mcr-1(−) strains, were carried out.

A further data set concerns mcr-1 bacterial membrane. Description: Ethidium bromide (EtBr) fluorescence, membrane disruption. It is filed as cell-based. Particulars: mcr-1 bacteria; in words. Here is the method: However, EtBr is membrane impermeable, which means that it can only enter the bacterial cell and bind to DNA and emit fluorescence only when both the bacterial outer and inner membranes are perturbed. […] It is also possible that LC100 may have other targets. One possible target is the MCR-1 protein. To understand the interaction of LC100 and the MCR-1 protein, the fluorescence of MCR-1 protein in the presence of different concentration of LC100 was measured. MCR-1 protein contains several tryptophan residues, and autofluoresces at 323 nm.

Data set [3] concerns MCR positive E. coli Clinical isolate 6083655967. It is filed as in vivo. The note with it: for reduction in bacterial burden: neutropenic mice, i.p. 1 hour after infection, 6 hours after treatment, colistin 10 mg/kg, LC100 50 mg/kg, meropenem 100 mg/kg, combination 50 + 10 mg/kg. Here is the method: FIG. 21 refers to graphs showing the efficacy testing of combination of LC100 and Colistin in neutropenic mouse thigh infection model infected with MCR positive E. coli Clinical isolate 6083655967. Starting inoculum was 1.87×10^6, N=3. “Combination” refers to Colistin 10 mg/kg+LC100 50 mg/kg. Each treatment was done intraperitoneally 1 hour after infection. 6 hours after treatment, mouse thigh tissues were homogenized for viable CFU.
The combination of colistin and antimicrobial peptide (LC100) was tested against E. coli clinical isolate MCR-positive strain 6083655967 in a neutropenic mouse thigh infection model. C57BL/6 mice were rendered neutropenic by cyclophosphamide, dosed at 150 and 100 mg kg-1 delivered on days −4 and −1 prior to infection. Bacteria were suspended in sterile saline and adjusted to a concentration of ˜1.876×10^6 CFU per infection site (100 micro-liters) and injected intramuscularly into the right thigh of five mice per treatment group. At 1 h post infection, mice received colistin ([…], i.p. n=5), LC100 (50 mg kg-1, i.p. n=5), untreated (n=5), or the combination (n=5). Mice were euthanized 6 h after infection; thigh tissue was aseptically collected, homogenized, serially diluted in PBS and plated onto solid TSA supplemented plates. Plates were incubated overnight at 37° C. and colonies were quantified to determine bacterial load.
To evaluate the in vivo efficacy of the combination of LC100 and colistin, a neutropenic mouse thigh infection model was used. 30 mice were classed into 5 groups: control, colistin at 10 mg/kg, LC100 at 50 mg/kg, meropenem at 100 mg/kg and combination of 50 mg/kg of LC100 and 10 mg/kg of colistin. Each treatment was administered intraperitoneally 1 hour after infection. The starting inoculum was 1.87×10^6, and 6 hours after treatment, mouse thigh tissues were homogenized for viable CFU. […] As neutropenic mice were used in the study, the 1.2 log reduction in bacterial burden is due to the combination of LC100 and colistin rather than the immune system of the mouse.

This note sets out measurements from patent publication US12473250B2, “Molecular design of new antibiotics and antibiotic adjuvants against MCR strains” (priority 2019, dated 2025).

Where only a bound is given, the exact number is not on record here.

As for `CCN(CC)CCCCOc1ccc(/C=C/C(=O)c2ccc(OCCCCN(CC)CC)c(CC=C(C)C)c2O)cc1` [LC100], the MIC in data set [1] (strain KLPN 8852), in data set [1] (strain KLPN 15588), in data set [1] (strain KLPN 24076) and in data set [1] (strain KLPN 27025) was greater than 50 µg/mL each time. Besides, in data set [2] (⅛ MIC of colistin in the presence of 10 μg/ml of LC100), the “log reduction in time kill” value is 3 log. Besides, the EtBr fluorescence result in the data set with mcr-1 bacterial membrane is “slight fluorescence”. In addition, in data set [3] (LC100 50 mg/kg or Colistin 10 mg/kg+LC100 50 mg/kg, intraperitoneally), the “observations in treated mice” value is on record as “Abdominal distension”. Also, the “reduction in bacterial burden” value in data set [3] is recorded as “cannot reduce the bacterial burden”.
As to Colistin, the MIC (in general, the least concentration at which growth counts as inhibited) in data set [1] (strain KLPN 8852) was greater than 50 µg/mL; in data set [1] (strain KLPN 15588), 1.56 µg/mL; in data set [1] (strain KLPN 24076), 1.56 µg/mL; in data set [1] (strain KLPN 27025) it was 1.56 µg/mL. Moreover, the “log reduction in time kill” value in data set [2] (colistin at concentrations equal or above the MIC) came out at 3 log. In addition, the EtBr fluorescence entry with mcr-1 bacterial membrane was “slight fluorescence”. Moreover, the “reduction in bacterial burden” value in data set [3] is recorded as “cannot reduce the bacterial burden”.
